{
  "source": "patent US20160346255A1",
  "about": "“METHODS, AGENTS AND COMPOSITIONS FOR TREATMENT OF INFLAMMATORY CONDITIONS” (Betanien Hospital, priority 2014, published 2016)",
  "system": "Patient with Inflammatory Bowel Disease",
  "experiment": "Inflammatory bowel disease (colitis) patient treated with degarelix",
  "format": "in vivo, human",
  "experimental": "• person, diagnosed with colitis • Inflammatory bowel disease, colitis verified on colonic biopsy sample. Patients with inflammatory colitis usually have a higher incidence of autoimmune diseases. This patient also had ankylosing spondylitis. • September 2014 received first dose of degarelix 240 mg s.c. • Received degarelix 80 mg s.c. approximately every two weeks thereafter. • The inflammatory bowel diseases (IBDs), Crohn's disease and ulcerative colitis, are chronic relapsing, remitting disorders. The assessment of disease activity presents challenges to clinicians. Fecal biomarkers, such as fecal calprotectin, are a non-invasive method which can be used to aid managing clinicians. Calprotectin is released extracellularly in times of cell stress or damage and can be detected within feces and thus be used as a sensitive marker of intestinal inflammation. […] Fecal calprotectin levels are elevated in patients with both Crohn's disease and ulcerative colitis (1-2). There have been several studies looking at the use of fecal calprotectin to predict or monitor response to treatment. • In a study looking at 11 patients with relapsing IBD, fecal calprotectin was analysed at inclusion and after 8 weeks of treatment. Treatment was individualized medical therapy. A normalized fecal calprotectin concentration at 8 weeks predicted a complete response in 100% of patients (3), corresponding to endoscopic mucosal healing (4). It has been shown that in patients with steroid induced clinical remission fecal calprotectin levels can remain elevated (5-6). […] A level of <50 mg/kg is considered normal or remission for IBD. • There is no gold standard index in the measurement of colitis disease activity in clinical trials. Due to the invasive nature of endoscopies, the Mayo non-invasive colitis assessment of response score can be used to assess treatment effect of IBD in clinical trials (9-11). […] Both the partial Mayo and total Mayo score are used to assess disease activity in clinical trials (13). The partial Mayo score also had good discriminatory value between subjects in remission and those with active disease (14). A clinical response has been defined as a 3 point or greater change in the partial Mayo score (15).",
  "note": "Non-standard residues stand in square brackets, D forms with d. Residues, ends and D or L forms follow the SMILES beside them. *: point of attachment. dPhe(4-NHCONH2) = NC(=O)Nc1ccc(C[C@@H](N)C(=O)O)cc1; Dihydroorotyl(S) = O=C1C[C@@H](C(=O)*)NC(=O)N1; dPhe(4-Cl) = N[C@H](Cc1ccc(Cl)cc1)C(=O)O; Phe(4-NH2) = Nc1ccc(C[C@H](N)C(=O)O)cc1; d2Nal = N[C@H](Cc1ccc2ccccc2c1)C(=O)O; Lys(iPr) = CC(C)NCCCC[C@H](N)C(=O)O; d3Pal = N[C@H](Cc1cccnc1)C(=O)O",
  "data": [
    {"smiles": "CC(=O)N[C@H](Cc1ccc2ccccc2c1)C(=O)N[C@H](Cc1ccc(Cl)cc1)C(=O)N[C@H](Cc1cccnc1)C(=O)N[C@@H](CO)C(=O)N[C@@H](Cc1ccc(NC(=O)[C@@H]2CC(=O)NC(=O)N2)cc1)C(=O)N[C@H](Cc1ccc(NC(N)=O)cc1)C(=O)N[C@@H](CC(C)C)C(=O)N[C@@H](CCCCNC(C)C)C(=O)N1CCC[C@H]1C(=O)N[C@H](C)C(N)=O", "note": "[degarelix] (Ac-[d2Nal][dPhe(4-Cl)][d3Pal]S[Phe(4-NH2)](Dihydroorotyl(S))[dPhe(4-NHCONH2)]L[Lys(iPr)]P[dA]-NH2)", "values": [
      {"measurement": "Fecal calprotectin (<50 normal)", "setting": "2 Oct. 2014, normal", "result": "48, normal mg/kg"},
      {"measurement": "Fecal calprotectin (<50 normal)", "setting": "10 Jan. 2015, normal", "result": "32, normal mg/kg"},
      {"measurement": "Fecal calprotectin (<50 normal)", "setting": "24 Sep. 2014 (started 10.09.14), high", "result": "79, high mg/kg"},
      {"measurement": "Partial Mayo score", "setting": "at 12 weeks, baseline 3", "result": 0}
    ]}
  ]
}
